Assay results: US11396497B2, “Proteasome inhibitors” (New Mexico Tech University Research Park Corporation, priority 2018, dated 2022)
Read-outs that look alike come from different tables or passages of the source.

How the values were obtained:
MCF7 cells [1] = assay: MTT assay cytotoxicity MCF7
[2] = biological target: T1, yeast proteasome yβ1 subunit (Saccharomyces cerevisiae, UniProt P25043+P38624); assay: Subunit selectivity, purified yeast proteasome yβ1; format: biochemical
T1 construct: measured using 8 μg/mL of purified yCP or iCP
Description: (§1) The compounds were diluted with lysis buffer; 10 μL of the compound-containing solution was added to the test wells at ten times the final concentration. […] The results are reported as the average of at least 3 technical replicates of IC50 values for proteasome inhibition.
(§2) Values and standard deviations were calculated from an assay performed in biological triplicate.

[3] = biological target: T2, yeast proteasome yβ2 subunit (Saccharomyces cerevisiae, UniProt P25043+P25451); assay: Subunit selectivity, purified yeast proteasome yβ2; format: biochemical
T2 construct: measured using 8 μg/mL of purified yCP or iCP
Description: as §1, §2

MDA-MB-231 cells [4] = assay: MTT assay cytotoxicity MDA-MB-231
[5] = biological target: T3, chymotrypsin-like activity of the 26S proteasome (Homo sapiens, UniProt P28074); assay: Proteasome assay, chymotrypsin-like (ChT-L) activity, Suc-LLVY-AMC, Jurkat cell lysate; format: biochemical; settings: for IC50: ± S.D., read-out: Proteasome Inhibition ChT-like IC50
T3 construct: endogenous in cells; host or cells: Jurkat (ATCC TIB-152, E6-1 clone) cell lysate
T3 sequence (P28074 60-263): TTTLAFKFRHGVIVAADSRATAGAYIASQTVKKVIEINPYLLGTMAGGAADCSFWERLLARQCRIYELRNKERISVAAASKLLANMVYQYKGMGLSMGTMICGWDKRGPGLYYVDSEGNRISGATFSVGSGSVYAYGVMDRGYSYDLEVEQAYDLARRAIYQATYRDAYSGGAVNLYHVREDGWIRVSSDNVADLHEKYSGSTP
Description: (§3) The lysate was stored at −80° C. until the sample was used for the proteasome assay.
as §1

[6] = biological target: T4, trypsin-like activity of the 26S proteasome (Homo sapiens, UniProt Q99436); assay: Proteasome assay, trypsin-like (T-L) activity, SUC-RLR-AMC, Jurkat cell lysate; format: biochemical
T4 construct: endogenous in cells; host or cells: Jurkat (ATCC TIB-152, E6-1 clone) cell lysate
T4 sequence (Q99436 44-277): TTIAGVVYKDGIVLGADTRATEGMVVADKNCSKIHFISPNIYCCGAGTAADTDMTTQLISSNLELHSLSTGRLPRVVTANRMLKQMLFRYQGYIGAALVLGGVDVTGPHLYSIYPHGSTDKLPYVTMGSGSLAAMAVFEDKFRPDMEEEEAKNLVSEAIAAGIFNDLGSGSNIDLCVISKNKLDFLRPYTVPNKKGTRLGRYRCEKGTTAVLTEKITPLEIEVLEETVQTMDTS
Description: as §3, §1

RPMI 8226 cells [7] = assay: MTT assay cytotoxicity RPMI 8226; settings: read-out: Cytotoxicity RPMI 8226 IC50
MDA-MB-231 cells [8] = system: MDA-MB-231 cells
MCF7 cells [9] = system: MCF7 cells
RPMI 8226 cells [10] = system: RPMI 8226 cells
[11] = Homo sapiens, MCF7, 48 h, read-out: Cytotoxicity MCF7 IC50
[12] = Homo sapiens, MDA-MB-231, 48 h, read-out: Cytotoxicity MDA-MB-231 IC50
[13] = Table 2, P1 analogues, ± S.D., read-out: Proteasome Inhibition T-L-like IC50
[14] = read-out: Cytotoxicity MCF7 IC50, Table 3, MTT, 48 h
[15] = Table 3, P2/P3 analogues, ± S.D., read-out: Proteasome Inhibition T-L-like IC50
[16] = read-out: Cytotoxicity MDA-MB-231 IC50, Table 3, MTT, 48 h

Row | Structure (SMILES) | IC50 (MCF7 cells [1]; [11]) [µM] | IC50 (MDA-MB-231 cells [4]; [12]) [µM] | IC50 (RPMI 8226 cells [7]; Homo sapiens, RPMI-8226, 48 h) [µM] | IC50 ([5]; Table 3, P2/P3 analogues) [µM] | IC50 [6, 15] [µM] | IC50 (MDA-MB-231 cells [8]) [µM] | IC50 (MCF7 cells [9]) [µM] | IC50 (RPMI 8226 cells [10]) [µM] | IC50 ([5]; Table 4, P4 analogues) [µM] | further results
1 | CC(C)C[C@H](NC(=O)[C@H](CCc1ccccc1)NC(=O)CN1CCOCC1)C(=O)N[C@@H](Cc1ccccc1)C(=O)N[C@@H](CC(C)C)C(=O)[C@@]1(C)CO1 [Carfilzomib, reference compound] | 0.004 ± 0.001 | 0.004 ± 0.002 | – | – | – | – | – | – | – | IC50 (MCF7 cells [1]; Homo sapiens, MCF7, read-out: Cytotoxicity MCF7 IC50): 0.00408 ± 5.6e-05 µM; IC50 [2]: > 1 µM; IC50 [3]: > 1 µM; IC50 (MDA-MB-231 cells [4]; Homo sapiens, MDA-MB-231, read-out: Cytotoxicity MDA-MB-231 IC50): 0.00279 ± 0.000464 µM
2 | CC(C)[C@H](NC(=O)[C@@H]1OC(=O)[C@H]1C1CCC1)C(=O)N[C@H](C(=O)OCc1ccccc1)C(C)C [Compound 9b, Benzyl ((2R,3S)-3-cyclobutyl-4-oxooxetane-2-carbonyl)-L-valyl-L-valinate] | > 50 | ~50 | 30.4 ± 4.75 | – | – | – | – | – | – | IC50 ([5]; Table 2, P1 analogues): 0.0265 ± 0.0077 µM; IC50 [6, 13]: 3.73 ± 0.775 µM
3 | CC(C)[C@H](NC(=O)[C@@H]1OC(=O)[C@H]1C1CCCC1)C(=O)N[C@H](C(=O)OCc1ccccc1)C(C)C [Compound 9c, Benzyl ((2R,3S)-3-cyclopentyl-4-oxooxetane-2-carbonyl)-L-valyl-L-valinate] | ~25 | 20.6 ± 3.94 | 1.98 ± 1 | – | – | – | – | – | – | subunit selectivity, ChT-L over T-L (in words) [5]: greatest selectivity; IC50 ([5]; Table 2, P1 analogues): 0.0139 ± 0.0006 µM; IC50 [6, 13]: 10.2 ± 3.39 µM
4 | CC(C)C[C@@H]1C(=O)O[C@H]1C(=O)N[C@H](C(=O)N[C@H](C(=O)OCc1ccccc1)C(C)C)C(C)C [Compound 9d, Benzyl ((2R,3S)-3-isobutyl-4-oxooxetane-2-carbonyl)-L-valyl-L-valinate] | ~40 | 25.3 ± 2.94 | 19.9 ± 8.06 | – | – | – | – | – | – | IC50 ([5]; Table 2, P1 analogues): 0.016 ± 0.0047 µM; IC50 [6, 13]: 6.67 ± 3.44 µM
5 | CC[C@H](C)[C@@H]1C(=O)O[C@H]1C(=O)N[C@@H](Cc1ccccc1)C(=O)N[C@H](C(=O)OCc1ccccc1)C(C)C [Compound 10b, Benzyl((2R,3S)-3-((S)-sec-butyl)-4-oxooxetane-2-carbonyl)-L-phenylalanyl-L-valinate] | – | – | – | 0.0077 ± 0.0017 | 3.82 ± 0.812 | – | – | – | – | IC50 (MCF7 cells [1]; [14]): ~5 µM; subunit selectivity, ChT-L over T-L (in words) [5]: enhanced subunit selectivity; IC50 (RPMI 8226 cells [7]; Table 3, MTT, 48 h): 2.33 ± 0.61 µM; IC50 (MDA-MB-231 cells [4]; [16]): 3.44 ± 0.722 µM
6 | CC[C@H](C)[C@@H]1C(=O)O[C@H]1C(=O)N[C@H](C(=O)N[C@@H](Cc1ccccc1)C(=O)OCc1ccccc1)C(C)C [Compound 10c, Benzyl((2R,3S)-3-((S)-sec-butyl)-4-oxooxetane-2-carbonyl)-L-valyl-phenylalaninate] | – | – | – | 0.0054 ± 0.0029 | 1.66 ± 0.204 | – | – | – | – | IC50 (MCF7 cells [1]; [14]): 2.3 ± 0.142 µM; IC50 (RPMI 8226 cells [7]; Table 3, MTT, 48 h): 1.03 ± 0.045 µM; IC50 (MDA-MB-231 cells [4]; [16]): 2.57 ± 0.705 µM
7 | CC[C@H](C)[C@@H]1C(=O)O[C@H]1C(=O)N[C@@H](Cc1ccccc1)C(=O)N[C@@H](Cc1ccccc1)C(=O)OCc1ccccc1 [Compound 10d, Benzyl((2R,3S)-3-((S)-sec-butyl)-4-oxooxetane-2-carbonyl)-L-phenylalanyl-L-phenylalaninate] | – | – | – | 0.0126 ± 0.0057 | 3.05 ± 1.27 | – | – | – | – | IC50 (MCF7 cells [1]; [14]): 3.62 ± 2.5 µM; IC50 (RPMI 8226 cells [7]; Table 3, MTT, 48 h): 1.28 ± 0.527 µM; IC50 (MDA-MB-231 cells [4]; [16]): 4.66 ± 1.54 µM
8 | CC[C@H](C)[C@@H]1C(=O)O[C@H]1C(=O)N[C@H](C(=O)N[C@H](C(=O)OCc1ccccc1)C(C)C)C(C)(C)C [Compound 10e, Benzyl((S)-2-((2R,3S)-3-((S)-sec-butyl)-4-oxooxetane-2-carboxamido)-3,3-dimethylbutanoyl)-L-valinate] | – | – | – | 0.0229 ± 0.0025 | 5.18 ± 1.49 | 1.03 ± 0.644 | 2.14 ± 0.122 | 1.05 ± 0.75 | – | subunit selectivity, ChT-L over T-L (in words) [5]: enhanced subunit selectivity
9 | CC[C@H](C)[C@@H]1C(=O)O[C@H]1C(=O)N[C@H](C(=O)N[C@H](C(=O)OCc1ccccc1)C(C)(C)C)C(C)C [Compound 10f, Benzyl(S)-2-((S)-2-((2R,3S)-3-((S)-sec-butyl)-4-oxooxetane-2-carboxamido)-3-methylbutanamido)-3,3-dimethylbutanoate] | 1.12 ± 0.332 | 1.11 ± 0.582 | 1.39 ± 0.131 | 0.0159 ± 0.001 | – | – | – | – | – | IC50 [6]: 3.71 ± 0.719 µM
10 | CC[C@H](C)[C@@H]1C(=O)O[C@H]1C(=O)N[C@H](C(=O)N[C@H](C(=O)OCc1ccccc1)C(C)(C)C)C(C)(C)C [Compound 10g, Benzyl(S)-2-((S)-2-((2R,3S)-3-((S)-sec-butyl)-4-oxooxetane-2-carboxamido)-3,3-dimethylbutanamido)-3,3-dimethylbutanoate] | 1.69 ± 0.102 | 0.953 ± 0.484 | 0.866 ± 0.532 | 0.0214 ± 0.0088 | 4.53 ± 2.18 | – | – | – | – | –
11 | CC[C@H](C)[C@@H]1C(=O)O[C@H]1C(=O)N[C@@H](CC(C)C)C(=O)N[C@H](C(=O)OCc1ccccc1)C(C)C [Compound 10h, Benzyl((2R,3S)-3-((S)-sec-butyl)-4-oxooxetane-2-carbonyl)-L-leucyl-L-valinate] | – | – | – | 0.0047 ± 0.0018 | 2.56 ± 0.39 | 2.08 ± 0.651 | 2.35 ± 0.458 | 1.78 ± 1.02 | – | –
12 | CC[C@H](C)[C@@H]1C(=O)O[C@H]1C(=O)N[C@@H](COCc1ccccc1)C(=O)N[C@H](C(=O)OCc1ccccc1)C(C)C [Compound 10j, BenzylO-benzyl-N-((2R,3S)-3-((S)-sec-butyl)-4-oxooxetane-2-carbonyl)-L-seryl-L-valinate] | – | – | – | 0.0069 ± 0.0002 | 0.792 ± 0.24 | – | – | – | – | IC50 (MCF7 cells [1]; [14]): 2.77 ± 0.791 µM; IC50 (RPMI 8226 cells [7]; Table 3, MTT, 48 h): 1.43 ± 0.526 µM; IC50 (MDA-MB-231 cells [4]; [16]): 2.21 ± 0.764 µM
13 | CC[C@H](C)[C@@H]1C(=O)O[C@H]1C(=O)N[C@H](C(=O)N[C@H](C(=O)OCc1ccc(Cl)cc1)C(C)C)C(C)C [Compound 11b, 4-chlorobenzyl((2R,3S)-3-((S)-sec-butyl)-4-oxooxetane-2-carbonyl)-L-valyl-L-valinate] | – | – | – | – | – | 0.307 ± 0.166 | 0.954 ± 0.351 | 0.088 ± 0.012 | 0.0102 ± 0.007 | –
14 | CC[C@H](C)[C@@H]1C(=O)O[C@H]1C(=O)N[C@H](C(=O)N[C@H](C(=O)OCC1CCCCC1)C(C)C)C(C)C [Compound 11c, Cyclohexylmethyl((2R,3S)-3-((S)-sec-butyl)-4-oxooxetane-2-carbonyl)-L-valyl-L-valinate] | – | – | – | – | – | 1.93 ± 0.917 | 4.57 ± 1.65 | 0.461 ± 0.194 | 0.013 ± 0.0052 | –
15 | CC[C@H](C)[C@@H]1C(=O)O[C@H]1C(=O)N[C@H](C(=O)N[C@H](C(=O)OCC(C)C)C(C)C)C(C)C [Compound 11d, Isobutyl((2R,3S)-3-((S)-sec-butyl)-4-oxooxetane-2-carbonyl)-L-valyl-L-valinate] | – | – | – | – | – | 0.355 ± 0.123 | 0.634 ± 0.072 | 0.099 ± 0.007 | 0.0094 ± 0.0037 | –
16 | CC[C@H](C)[C@@H]1C(=O)O[C@H]1C(=O)N[C@H](C(=O)N[C@H](C(=O)OCc1ccc(OC)cc1)C(C)C)C(C)C [Compound 11f, 4-methoxybenzyl((2R,3S)-3-((S)-sec-butyl)-4-oxooxetane-2-carbonyl)-L-valyl-L-valinate] | – | – | – | – | – | – | – | – | 0.009 ± 0.0042 | IC50 (MCF7 cells [1]; read-out: Cytotoxicity MCF7 IC50, Table 4, MTT, 48 h): 0.574 ± 0.096 µM; IC50 (RPMI 8226 cells [7]; Table 4, MTT, 48 h): 0.117 ± 0.047 µM; IC50 (MDA-MB-231 cells [4]; read-out: Cytotoxicity MDA-MB-231 IC50, Table 4, MTT, 48 h): 0.265 ± 0.114 µM
17 | C=CCCOC(=O)[C@@H](NC(=O)[C@@H](NC(=O)[C@@H]1OC(=O)[C@H]1[C@@H](C)CC)C(C)C)C(C)C [Compound 11g, But-3-en-1-yl((2R,3S)-3-((S)-sec-butyl)-4-oxooxetane-2-carbonyl)-L-valyl-L-valinate] | – | – | – | – | – | 0.361 ± 0.043 | 0.752 ± 0.384 | 0.264 ± 0.048 | 0.0087 ± 0.002 | –
18 | CC[C@H](C)[C@@H]1C(=O)O[C@H]1C(=O)N[C@H](C(=O)N[C@H](C(=O)OC)C(C)C)C(C)C [Compound 11h, Methyl ((2R,3S)-3-((S)-sec-butyl)-4-oxooxetane-2-carbonyl)-L-valyl-L-valinate] | 0.506 ± 0.207 | 0.316 ± 0.044 | 0.293 ± 0.071 | – | – | – | – | – | 0.0243 ± 0.0082 | –
